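Following 48 hours of exposure in 96-well plates, responses at five concentrations were used to interpolate endpoints linearly. The concentration for 50% growth inhibition is given as GI50. At the TGI there is no net growth.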
How the values were obtained:
Assay in all cases: inhibition of tumour cell growth, NCI panel, 48 h
786-0 renal = tested on: 786-0 renal
A498 renal = tested on: A498 renal
A549 NSCLC = tested on: A549 NSCLC
ACHN renal = tested on: ACHN renal
BT-549 breast = tested on: BT-549 breast
CAKI-1 renal = tested on: CAKI-1 renal
CCRF-CEM leukemia = tested on: CCRF-CEM leukemia
COLO 205 colon = tested on: COLO 205 colon
DU-145 prostate = tested on: DU-145 prostate
HCC-2998 colon = tested on: HCC-2998 colon
HCT-116 colon = tested on: HCT-116 colon
HCT-15 colon = tested on: HCT-15 colon
HL-60(TB) leukemia = tested on: HL-60(TB) leukemia
HOP-62 NSCLC = tested on: HOP-62 NSCLC
HOP-92 NSCLC = tested on: HOP-92 NSCLC
HS 578T breast = tested on: HS 578T breast
HT29 colon = tested on: HT29 colon
IGROV1 ovarian = tested on: IGROV1 ovarian
K-562 leukemia = tested on: K-562 leukemia
KM12 colon = tested on: KM12 colon
LOX IMVI melanoma = tested on: LOX IMVI melanoma
M14 melanoma = tested on: M14 melanoma
MALME-3M melanoma = tested on: MALME-3M melanoma
MCF7 breast = tested on: MCF7 breast
MDA-MB-231 breast = tested on: MDA-MB-231 breast
MDA-MB-435 = tested on: MDA-MB-435
MOLT-4 leukemia = tested on: MOLT-4 leukemia
NCI-H226 lung = tested on: NCI-H226 lung
NCI-H23 lung = tested on: NCI-H23 lung
NCI-H460 lung = tested on: NCI-H460 lung
NCI-H522 lung = tested on: NCI-H522 lung
NCI/ADR-RES ovarian = tested on: NCI/ADR-RES ovarian
OVCAR-3 ovarian = tested on: OVCAR-3 ovarian
OVCAR-4 ovarian = tested on: OVCAR-4 ovarian
OVCAR-5 ovarian = tested on: OVCAR-5 ovarian
OVCAR-8 ovarian = tested on: OVCAR-8 ovarian
PC-3 prostate = tested on: PC-3 prostate
RPMI-8226 leukemia = tested on: RPMI-8226 leukemia
RXF 393 renal = tested on: RXF 393 renal
SF-268 CNS = tested on: SF-268 CNS
SF-295 CNS = tested on: SF-295 CNS
SF-539 CNS = tested on: SF-539 CNS
SK-MEL-2 melanoma = tested on: SK-MEL-2 melanoma
SK-MEL-28 melanoma = tested on: SK-MEL-28 melanoma
SK-MEL-5 melanoma = tested on: SK-MEL-5 melanoma
SK-OV-3 ovarian = tested on: SK-OV-3 ovarian
SN12C renal = tested on: SN12C renal
SNB-19 CNS = tested on: SNB-19 CNS
SNB-75 CNS = tested on: SNB-75 CNS
SR leukemia = tested on: SR leukemia
SW-620 colon = tested on: SW-620 colon
T-47D breast = tested on: T-47D breast
TK-10 renal = tested on: TK-10 renal
U251 CNS = tested on: U251 CNS
UACC-257 melanoma = tested on: UACC-257 melanoma
UACC-62 melanoma = tested on: UACC-62 melanoma
UO-31 renal = tested on: UO-31 renal

Work on `COc1cc(/C=C2\CN(C)C/C(=C\c3cc(OC)c(OC)c(OC)c3)C2=O)cc(OC)c1OC` yielded a GI50 (786-0 renal) of 270 nM, a GI50 (A498 renal) of 447 nM and a TGI (A498 renal) of 1590 nM. For the same compound, the GI50 (A549 NSCLC) was 370 nM, the TGI (A549 NSCLC) was 1590 nM and the GI50 (ACHN renal) was 200 nM. It also gave a TGI (ACHN renal) of 387 nM, a GI50 (BT-549 breast) of 295 nM and a TGI (BT-549 breast) of 923 nM. The GI50 (CAKI-1 renal) was 288 nM, the TGI (CAKI-1 renal) was 951 nM and the GI50 (CCRF-CEM leukemia) was 271 nM. For the same compound, the TGI (CCRF-CEM leukemia) was 1130 nM, the GI50 (COLO 205 colon) was 230 nM and the TGI (COLO 205 colon) was 461 nM. It also gave a GI50 (DU-145 prostate) of 355 nM, a TGI (DU-145 prostate) of 1220 nM and a GI50 (HCC-2998 colon) of 366 nM. For the same compound, the TGI (HCC-2998 colon) was 1220 nM, the GI50 (HCT-116 colon) was 154 nM and the TGI (HCT-116 colon) was 335 nM. It also gave a GI50 (HCT-15 colon) of 214 nM, a TGI (HCT-15 colon) of 555 nM and a GI50 (HL-60(TB) leukemia) of 340 nM. The TGI (HL-60(TB) leukemia) was 1670 nM, the GI50 (HOP-62 NSCLC) was 360 nM and the TGI (HOP-62 NSCLC) was 1130 nM. The GI50 (HOP-92 NSCLC) was 774 nM, the TGI (HOP-92 NSCLC) was 2800 nM and the GI50 (HS 578T breast) was 1010 nM. It also gave a TGI (HS 578T breast) greater than 63500 nM, a GI50 (HT29 colon) of 214 nM and a TGI (HT29 colon) of 505 nM. The GI50 (IGROV1 ovarian) was 413 nM, the TGI (IGROV1 ovarian) was 1730 nM and the GI50 (K-562 leukemia) was 334 nM. It also gave a TGI (K-562 leukemia) greater than 100000 nM, a GI50 (KM12 colon) of 195 nM and a TGI (KM12 colon) of 394 nM. It also gave a GI50 (LOX IMVI melanoma) of 141 nM, a TGI (LOX IMVI melanoma) of 370 nM and a GI50 (M14 melanoma) of 306 nM. It also gave a TGI (M14 melanoma) of 1570 nM, a GI50 (MALME-3M melanoma) of 209 nM and a TGI (MALME-3M melanoma) of 435 nM. The GI50 (MCF7 breast) was 317 nM, the TGI (MCF7 breast) was 1830 nM and the GI50 (MDA-MB-231 breast) was 336 nM. It also gave a TGI (MDA-MB-231 breast) of 1030 nM, a GI50 (MDA-MB-435) of 287 nM and a TGI (MDA-MB-435) of 1020 nM. It also gave a GI50 (MOLT-4 leukemia) of 323 nM, a TGI (MOLT-4 leukemia) of 4500 nM and a GI50 (NCI-H226 lung) of 239 nM. The TGI (NCI-H226 lung) was 588 nM, the GI50 (NCI-H23 lung) was 420 nM and the TGI (NCI-H23 lung) was 1610 nM. It also gave a GI50 (NCI-H460 lung) of 252 nM, a TGI (NCI-H460 lung) of 654 nM and a GI50 (NCI-H522 lung) of 234 nM. For the same compound, the TGI (NCI-H522 lung) was 624 nM, the GI50 (NCI/ADR-RES ovarian) was 349 nM and the TGI (NCI/ADR-RES ovarian) was greater than 100000 nM. It also gave a GI50 (OVCAR-3 ovarian) of 328 nM, a TGI (OVCAR-3 ovarian) of 892 nM and a GI50 (OVCAR-4 ovarian) of 342 nM. It also gave a TGI (OVCAR-4 ovarian) of 1950 nM, a GI50 (OVCAR-5 ovarian) of 357 nM and a TGI (OVCAR-5 ovarian) of 1170 nM. The GI50 (OVCAR-8 ovarian) was 312 nM, the TGI (OVCAR-8 ovarian) was 75700 nM and the GI50 (PC-3 prostate) was 1320 nM. It also gave a TGI (PC-3 prostate) of 4520 nM, a GI50 (RPMI-8226 leukemia) of 266 nM and a TGI (RPMI-8226 leukemia) of 841 nM. The GI50 (RXF 393 renal) was 199 nM, the TGI (RXF 393 renal) was 389 nM and the GI50 (SF-268 CNS) was 346 nM. The TGI (SF-268 CNS) was 1600 nM, the GI50 (SF-295 CNS) was 319 nM and the TGI (SF-295 CNS) was 1120 nM. It also gave a GI50 (SF-539 CNS) of 379 nM, a TGI (SF-539 CNS) of 1330 nM and a GI50 (SK-MEL-2 melanoma) of 305 nM. It also gave a TGI (SK-MEL-2 melanoma) of 959 nM, a GI50 (SK-MEL-28 melanoma) of 200 nM and a TGI (SK-MEL-28 melanoma) of 429 nM. For the same compound, the GI50 (SK-MEL-5 melanoma) was 204 nM, the TGI (SK-MEL-5 melanoma) was 434 nM and the GI50 (SK-OV-3 ovarian) was 412 nM. For the same compound, the TGI (SK-OV-3 ovarian) was 1410 nM, the GI50 (SN12C renal) was 267 nM and the TGI (SN12C renal) was 833 nM. It also gave a GI50 (SNB-19 CNS) of 1140 nM, a TGI (SNB-19 CNS) of 2600 nM and a GI50 (SNB-75 CNS) of 667 nM. The TGI (SNB-75 CNS) was 2480 nM, the GI50 (SR leukemia) was 240 nM and the TGI (SR leukemia) was 1410 nM. The GI50 (SW-620 colon) was 347 nM, the TGI (SW-620 colon) was 1420 nM and the GI50 (T-47D breast) was 1120 nM. It also gave a TGI (T-47D breast) of 5020 nM, a GI50 (TK-10 renal) of 247 nM and a TGI (TK-10 renal) of 771 nM. It also gave a GI50 (U251 CNS) of 257 nM, a TGI (U251 CNS) of 746 nM and a GI50 (UACC-257 melanoma) of 245 nM. The TGI (UACC-257 melanoma) was 758 nM, the GI50 (UACC-62 melanoma) was 186 nM and the TGI (UACC-62 melanoma) was 383 nM. It also gave a GI50 (UO-31 renal) of 280 nM and a TGI (UO-31 renal) of 818 nM.
